This is an account of results in patent US20250241894A1, “TREATMENT OF MENTAL DISORDERS” (GH RESEARCH IRELAND LIMITED, priority 2022, published 2025).

The test system of data set [1] is human hepatocytes. The data set can be described thus: Metabolism identification study in human hepatocytes. Particulars: for Relative Proportion of compounds identified: 5-MeO-DMT free base 10 μM, up to 120 minutes. As for the experimental part:
For incubations with cryopreserved hepatocytes, the 2 mM stock solution was diluted with Leibovitz L-15 medium to a concentration of 20 μM or 2 μM. An aliquot (250 μL) of the 20 μM and 2 μM test substance formulations was added to each hepatocyte incubation sample (250 μL), as appropriate, so that the final test substance concentration in the incubations was 10 μM or 1 μM, respectively, and incubations contained less than 1% (v/v) solvent.
Incubations were performed at ca. 37° C. in a shaking water bath (total incubation volume 0.5 mL). For 1 μM, incubations were terminated after 0, 5, 10, 20, 30, 60 and 120 minutes, by the addition of ice-cold acetonitrile (0.5 mL).
The samples were vortex mixed and centrifuged at ca 13,000 rpm for 10 minutes at room temperature. Following centrifugation, the protein-free supernatants were removed for analysis.
Blank control incubations were carried out with Leibovitz L-15 medium in place of the test substance. No cells control samples were performed with Leibovitz L-15 medium in place of hepatocytes. Aliquots of the blank control samples were taken at 120 minutes, while no cells control samples were taken at 0, 30 and 120 for 1 μM incubations and at 0 and 120 minutes for 10 μM incubations.
All 1 μM incubations were performed in duplicate, while all 10 μM incubations were performed in singlet. All samples were stored at −80° C. (nominal) prior to analysis.
Prior to sample analysis a 100 μL aliquot of each sample was evaporated to near dryness under a steady stream of nitrogen at room temperature, and subsequently reconstituted in 50 μL of mobile phase A (0.1% formic acid in water). Each sample (0, 30 and 120-minute, 10 μM) was analysed using accurate mass LC-MS to determine relative levels of parent compound at each time-point, and determine the profile of metabolites formed. Appropriate blank and control samples were also analysed. The 10 and 60-minute, 10 μM incubation samples were not analysed and were stored at −80° C. (nominal).
Data were interrogated for the presence of metabolites by comparison of retention times with the test substance reference standard and based on the accurate masses of potential metabolites using screening software (UNIFI version 1.9.4), and user defined search parameters. To confirm a suspected metabolite, the measured accurate mass of the peak detected in the sample used for structural elucidation had to be within 5 ppm of the theoretical mass in order to confirm the molecular formula.

For another data set, the system named is human plasma protein. The data set can be described thus: Binding of 5-MIAA to human plasma protein. The class given is in vitro ADME. As for the experimental part: Binding to human plasma protein was determined. Reported are the unbound fraction (fu) for three replicates as well as the mean unbound fraction, the standard deviation and the mean % recovery (Table 8).

Data set [2] has as its system human hepatocytes. The experiment in a line: Metabolic stability in Hμrel human hepatocyte co-culture assay.
The nature of data set [3]: Pharmacokinetics of 5-MeO-DMT and bufotenine after a single inhaled dose. Type of data set: in vivo, human. Particulars: 15 minutes after administration of 5-MeO-DMT. The method, then:
Blood samples were obtained at 1; 2; 4; 7; 10; 15; 20; 30; 45 min and 1; 1.5; 2; 3; 4 hours after administration.
PK parameters were generated by algebraic analysis of the concentration versus time plots for each individual. The analysis was carried out using the software Phoenix WinNonlin 6.3.

A short description of a further data set: Water solubility. Type of data set: physicochemical.
For data set [4] the following is noted: rat; cited from earlier work.

As to 5-Methoxyindole acetic acid [5-MIAA], the “Presence in subsequent assays” value in the data set on human hepatocytes [1] was “predominant metabolite”. The “Plasma binding (mean fraction unbound)” value with human plasma protein is recorded as about 50%. In addition, the “Time until removed from circulation for urinary excretion” value with human plasma protein (assuming glomerular filtration rate 90-120 ml/min) lay in the range of 1 to 2 h. The Remaining abundance with human hepatocytes [2] (after 72 h, hepatocytes, 1 and 10 μM) is 75-82%. Moreover, the Metabolic turnover entry in the data set on human hepatocytes [2] (hepatocytes) is “low metabolic turnover”. The “Disappearance with stromal cell controls” value in the data set with human hepatocytes [2] (stromal cells) is listed as “no disappearance”.

For `CN(C)CCc1c[nH]c2ccc(O)cc12` [bufotenine, Bufotenine], in the data set with human hepatocytes [1], the “Relative Proportion of compounds identified” value (“Relative Proportion” for short) is listed as 5%. The “Detection in human serum” value in data set [3] is given as “In no case is it detected”.

As for `COc1ccc2[nH]cc(CCO)c2c1` [5-methoxytryptophol, 5-Methoxyindole-3-ethanol], in the data set with human hepatocytes [1], the “Relative Proportion” value was 25% and the “Presence in subsequent assays” value was “failed to detect”. In addition, in the data set on human hepatocytes [2] (hepatocytes), the Metabolic turnover result is listed as “high metabolic turnover” and the “Time to complete disappearance” value stood at 24 h.

Consider `CN(C)CCc1c[nH]c2ccc(O[C@@H]3O[C@H](C(=O)O)[C@@H](O)[C@H](O)[C@H]3O)cc12` [Bufotenine glucuronide], for which the “Detection in the hepatocyte assay” value in the data set on human hepatocytes [1] was “not detected”.

As for `COc1ccc2[nH]cc(CC[N+](C)(C)[O-])c2c1` [5-MeO-DMT-N-oxide], in the data set on human hepatocytes [1], the “Relative Proportion” value is reported as 1%. Also, the Water solubility result in the data set “Water solubility” was “water soluble”. In data set [4], the Excretion entry was “rapid excretion”.
